Data as given in patent US7482462B2, “Acylsulfonamides as inhibitors of steroid sulfatase” (priority 2001, dated 2009).

Molecular target: T1, human steroid sulfatase (Homo sapiens, UniProt P08842)
T1 construct: Human placenta is obtained freshly after delivery; from tissue; host or cells: human placenta (microsomes, Triton X-100 extract, column-purified)
T1 sequence (P08842 22-583): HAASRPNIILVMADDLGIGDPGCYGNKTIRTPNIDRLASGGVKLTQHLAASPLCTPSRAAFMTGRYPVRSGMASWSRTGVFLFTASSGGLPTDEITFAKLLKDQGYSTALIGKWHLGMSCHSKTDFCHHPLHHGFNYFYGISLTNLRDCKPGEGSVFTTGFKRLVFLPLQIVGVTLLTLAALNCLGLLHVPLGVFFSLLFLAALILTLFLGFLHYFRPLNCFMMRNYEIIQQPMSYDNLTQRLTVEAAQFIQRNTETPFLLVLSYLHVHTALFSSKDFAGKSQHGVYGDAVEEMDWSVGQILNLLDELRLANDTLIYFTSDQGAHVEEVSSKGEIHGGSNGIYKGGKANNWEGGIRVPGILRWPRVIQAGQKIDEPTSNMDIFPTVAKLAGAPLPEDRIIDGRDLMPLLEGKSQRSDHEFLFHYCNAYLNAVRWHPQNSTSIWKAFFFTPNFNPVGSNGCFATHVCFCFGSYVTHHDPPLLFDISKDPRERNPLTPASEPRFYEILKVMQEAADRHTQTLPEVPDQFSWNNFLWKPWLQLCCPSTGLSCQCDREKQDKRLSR
Test: Assay of Human Steroid Sulfatase (purified from placenta, 4-methylumbelliferyl sulfate cleavage, fluorescence)
Assay type: biochemical
Details: reference compound, determined in parallel to test compounds; substrate 4-methylumbelliferyl sulfate, 37° C., 1 hour
Method: For storage, the material is frozen at −70° C.
The activity is recovered in the flow-through.
Plates are incubated at 37° C. for 1 hour.
Relative IC50 values are defined as follows: […]

## CC12CCC3c4ccc(OS(N)(=O)=O)cc4CCC3C1CCC2=O (stereo not shown) [estrone sulfamate, Estrone sulfamate]
  IC50: ~60 nM
